Columns and labels:
false cleavers [1] = assay: Test Example 4: herbicidal effect by soil treatment (Table 19, symbol Q); assay type: in vivo, false cleavers (Galium spurium); settings: amount of applied herbicide 320 g/ha
In short: (§1)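 Pre-emergence style soil spray: seeds under ~1.5 cm sterilized diluvial soil received a uniform coat of emulsion diluted to the predetermined herbicide amount. Greenhouse 25–30° C; readout at week three on previously defined criteria.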

late watergrass = assay: Test Example 2: herbicidal activity, application during weed generation under submerged conditions (Table 17, symbol A); assay type: in vivo, late watergrass (Echinochloa oryzicola); settings: AAH 320 g/ha; application during weed generation, submerged conditions
In short: (§2)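 Steps: fill Wagner pots with alluvial soil; add water to give 4 cm depth; sow the species mixed; grow under glass at 25–30° C.; at 1–2 leaves apply water-diluted emulsion formulation to the water surface at a fixed herbicide amount; score after 3 weeks.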

southern crabgrass = assay: Test Example 5: herbicidal effect by foliage application, plastic box (Table 20, symbol F); assay type: in vivo, southern crabgrass (Digitaria ciliaris)
In short: (§3)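 Plants were sown into sterilized diluvial soil under about 1.5 cm cover and kept in a greenhouse at 25° C. to 30° C. Fourteen days on, foliage received an even spray of the diluted emulsion. Herbicidal or crop effect was judged three weeks afterwards.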

lambsquarters = assay: Test Example 4: herbicidal effect by soil treatment (Table 19, symbol O); assay type: in vivo, lambsquarters (Chenopodium album); settings: amount of applied herbicide 320 g/ha
In short: as §1

wild oat [2] = assay: Test Example 4: herbicidal effect by soil treatment (Table 19, symbol I); assay type: in vivo, wild oat (Avena fatua); settings: amount of applied herbicide 320 g/ha
In short: as §1

velvetleaf = assay: Test Example 4: herbicidal effect by soil treatment (Table 19, symbol M); assay type: in vivo, velvetleaf (Abutilon theophrasti); settings: amount of applied herbicide 320 g/ha
In short: as §1

chickweed [3] = assay: Test Example 4: herbicidal effect by soil treatment (Table 19, symbol P); assay type: in vivo, common chickweed (Stellaria media); settings: amount of applied herbicide 320 g/ha
In short: as §1

chickweed [4] = assay: Test Example 5: herbicidal effect by foliage application, plastic box (Table 20, symbol P); assay type: in vivo, common chickweed (Stellaria media)
In short: as §3

wild oat [5] = assay: Test Example 5: herbicidal effect by foliage application, plastic box (Table 20, symbol I); assay type: in vivo, wild oat (Avena fatua)
In short: as §3

oval-leafed pondweed [6] = assay: Test Example 1: herbicidal activity, application before weed generation under submerged conditions (Table 16, symbol C); assay type: in vivo, oval-leafed pondweed (Monochoria vaginalis); settings: amount of applied herbicide 320 g/ha
In short: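 Alluvial soil was flooded to 4 cm depth, weed seeds were sown mixed and 2.5-leaf rice seedlings were transplanted. On sowing day, the compound's emulsion, diluted in water to a set dose, was applied to the water surface. Plants grew at 25–30 °C and were scored 0–5 after three weeks.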

oval-leafed pondweed [7] = assay: Test Example 2: herbicidal activity, application during weed generation under submerged conditions (Table 17, symbol C); assay type: in vivo, oval-leafed pondweed (Monochoria vaginalis); settings: AAH 320 g/ha; application during weed generation, submerged conditions
In short: as §2

Japanese bulrush = assay: Test Example 2: herbicidal activity, application during weed generation under submerged conditions (Table 17, symbol B); assay type: in vivo, Japanese bulrush (Schoenoplectus juncoides); settings: AAH 320 g/ha; application during weed generation, submerged conditions
In short: as §2

persian speedwell = assay: Test Example 4: herbicidal effect by soil treatment (Table 19, symbol R); assay type: in vivo, Persian speedwell (Veronica persica); settings: amount of applied herbicide 320 g/ha
In short: as §1

barnyard grass = assay: Test Example 4: herbicidal effect by soil treatment (Table 19, symbol H); assay type: in vivo, barnyard grass (Echinochloa crus-galli); settings: amount of applied herbicide 320 g/ha
In short: as §1

Italian ryegrass = assay: Test Example 4: herbicidal effect by soil treatment (Table 19, symbol K); assay type: in vivo, Italian ryegrass (Lolium multiflorum); settings: amount of applied herbicide 320 g/ha
In short: as §1

false cleavers [8] = assay: Test Example 5: herbicidal effect by foliage application, plastic box (Table 20, symbol Q); assay type: in vivo, false cleavers (Galium spurium); settings: amount of applied herbicide 320 g/ha; foliage application after 14-day growth; evaluated three weeks after application
In short: as §3

windgrass = assay: Test Example 4: herbicidal effect by soil treatment (Table 19, symbol L); assay type: in vivo, windgrass (Apera spica-venti); settings: amount of applied herbicide 320 g/ha
In short: as §1

[9] = foliage application, 320 g/ha, three weeks after application
[10] = amount of applied herbicide 320 g/ha, foliage application after 14-day growth, evaluated three weeks after application

Row | SMILES | Q: false cleavers, herbicidal effect grade (false cleavers [1]) | herbicidal effect rating, A: late watergrass (late watergrass) | F: southern crabgrass, herbicidal effect grade (southern crabgrass; [9]) | O: lambsquarters, herbicidal effect grade (lambsquarters) | I: wild oat, herbicidal effect grade (wild oat [2]) | M: velvetleaf, herbicidal effect grade (velvetleaf) | P: chickweed, herbicidal effect grade (chickweed [3]) | P: chickweed, herbicidal effect grade (chickweed [4]; [9]) | I: wild oat, herbicidal effect grade (wild oat [5]; [9]) | Herbicidal effect, C: oval-leafed pondweed (oval-leafed pondweed [6]) | herbicidal effect rating, C: oval-leafed pondweed (oval-leafed pondweed [7]) | herbicidal effect rating, B: Japanese bulrush (Japanese bulrush) | R: persian speedwell, herbicidal effect grade (persian speedwell) | H: barnyard grass, herbicidal effect grade (barnyard grass) | K: Italian ryegrass, herbicidal effect grade (Italian ryegrass) | Herbicidal effect by foliage application, Q: false cleavers (false cleavers [8]) | Herbicidal effect by foliage application, F: southern crabgrass (southern crabgrass; [10]) | Herbicidal effect by foliage application, P: chickweed (chickweed [4]; [10]) | Herbicidal effect by foliage application, I: wild oat (wild oat [5]; [10]) | L: windgrass, herbicidal effect grade (windgrass)
1 | CCOc1cc(F)ccc1-c1sc2cc(Cl)ccc2c1-c1c(O)c(C)nn(C)c1=O [3-045] | 4 (Herbicidal rate of 70% or more and less than 90%) | 2 (Herbicidal rate of 20% or more and less than 40%) | 5 (Herbicidal rate of 90% or more (almost completely withered)) | 4 (Herbicidal rate of 70% or more and less than 90%) | 0 (Herbicidal rate of 5% or less (almost no effect)) | 2 (Herbicidal rate of 20% or more and less than 40%) | 4 (Herbicidal rate of 70% or more and less than 90%) | 5 (Herbicidal rate of 90% or more (almost completely withered)) | 5 (Herbicidal rate of 90% or more (almost completely withered)) | 0 (Herbicidal rate of 5% or less (almost no effect)) | 0 (Herbicidal rate of 5% or less (almost no effect)) | 2 (Herbicidal rate of 20% or more and less than 40%) | 3 (Herbicidal rate of 40% or more and less than 70%) | 5 (Herbicidal rate of 90% or more (almost completely withered)) | 0 (Herbicidal rate of 5% or less (almost no effect)) |  |  |  |  | 
2 | CCCC(=O)Oc1c(C)nn(C)c(=O)c1-c1c(-c2ccccc2OC)sc2cc(F)c(F)cc12 [5-012] |  | 0 (Herbicidal rate of 5% or less (almost no effect)) |  | 5 (Herbicidal rate of 90% or more (almost completely withered)) | 3 (Herbicidal rate of 40% or more and less than 70%) | 3 (Herbicidal rate of 40% or more and less than 70%) | 3 (Herbicidal rate of 40% or more and less than 70%) |  |  | 2 (Herbicidal rate of 20% or more and less than 40%) | 2 (Herbicidal rate of 20% or more and less than 40%) | 2 (Herbicidal rate of 20% or more and less than 40%) | 3 (Herbicidal rate of 40% or more and less than 70%) | 1 (Herbicidal rate of 5% or more and less than 20%) | 0 (Herbicidal rate of 5% or less (almost no effect)) | 5 (Herbicidal rate of 90% or more (almost completely withered)) | 0 (Herbicidal rate of 5% or less (almost no effect)) | 5 (Herbicidal rate of 90% or more (almost completely withered)) | 2 (Herbicidal rate of 20% or more and less than 40%) | 3 (Herbicidal rate of 40% or more and less than 70%)

Reference: US20230085307A1, “PYRIDAZINONE COMPOUND AND HERBICIDE” (NISSAN CHEMICAL CORPORATION, priority 2019, published 2023)
